According to PMC8509428, “The Phenoxyalkyltriazine Antagonists for 5-HT6 Receptor with Promising Procognitive and Pharmacokinetic Properties In Vivo in Search for a Novel Therapeutic Approach to Dementia Diseases” (International Journal of Molecular Sciences, 2021):
Where “and” joins values, the source holds several entries; their conditions need not be identical. Identical values can stand only once. Counter-ions that a name gives are not always drawn.

What was measured:
[1] = molecular target: human serotonin 5-HT6 receptor (Homo sapiens, UniProt P50406); assay: Functional assay for 5-HT6 receptor (cAMP, 1321N1 cells)
Sequence of human serotonin 5-HT6 receptor (P50406 whole entry): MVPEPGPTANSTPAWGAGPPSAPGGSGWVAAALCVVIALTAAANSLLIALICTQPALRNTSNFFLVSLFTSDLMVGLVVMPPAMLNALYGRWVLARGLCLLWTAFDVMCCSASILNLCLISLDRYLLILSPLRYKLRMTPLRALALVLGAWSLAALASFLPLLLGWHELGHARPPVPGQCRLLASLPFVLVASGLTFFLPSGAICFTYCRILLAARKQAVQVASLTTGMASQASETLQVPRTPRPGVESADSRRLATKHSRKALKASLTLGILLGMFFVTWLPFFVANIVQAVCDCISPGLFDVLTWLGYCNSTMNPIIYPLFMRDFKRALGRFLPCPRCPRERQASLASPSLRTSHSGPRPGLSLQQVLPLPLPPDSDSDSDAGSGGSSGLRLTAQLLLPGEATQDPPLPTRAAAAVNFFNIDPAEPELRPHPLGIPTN

[2] = test system: MK-801-induced memory deficits in rats; assay: Novel object recognition (NOR) test, MK-801-induced memory impairment; format: in vivo, rat; settings: MK-801 0.1 mg/kg i.p. + vehicle; 0.1 mg/kg
Protocol: Five days before the experiment, the rats were transferred to the laboratory, labelled and, thereafter, left to acclimate to the new environment. The animals were handling every five days before experiments to minimize the stress reaction. The protocol was adapted from the original work. The test session comprising of two trials separated by an inter-trial interval (ITI) of 1 h was carried out after 2 days of the training session. During the first trial (familiarization, T1) two identical objects (A1 and A2) were presented in the opposite corners of the open field, approximately 10 cm from the walls. During the second trial (recognition, T2) one of the A objects was replaced by a novel object B, so that the animals were presented with the A = familiar and B = novel objects. Both trials lasted for 3 min and the animals were returned to their home cages after T1.
The objects used were the metal Coca-Cola cans and the glass jars filled with sand. […] The sequence of presentations and the location of the objects were randomly assigned to each rat. After each measurement, the floor was cleaned and dried.
The animals explored the objects by looking, licking, sniffing or touching the object but not when leaning against, standing or sitting on the object. Any rat exploring the two objects for less than 5 s within 3 min of T1 or T2 was eliminated from the study. The exploration time of the objects was measured by a blind experimenter. Based on the exploration time (E) of two objects during T2, the discrimination index (DI) was calculated according to the formula: DI = (EB − EA)/(EA + […]). Using this metric, scores approaching zero reflects no preference while positive values reflect a preference for the novel object and negative numbers reflect a preference for the familiar.
MK-801, used to attenuate learning, was administered at the dose of 0.1 mg/kg (i.p.) 30 min before the familiarization phase (T1), while investigated compounds were given 60 min before T1 session. In such scheme of experiment we could observe the impact of investigated compounds on the one type of rats’ memory—episodic memory and one phase of memory process—[…].
The total exploration time in T2 was used to express the influence of the treatment on the exploratory activity of the animals.

[3] = test system: MK-801-induced memory deficits in rats; settings: MK-801 0.1 mg/kg i.p. + vehicle; cited from earlier work
[4] = test system: rats; settings: i.p.; ref 10 (AG-1), 11 (AG-2), 12 (AN-1), 13 (AN-2); cited from earlier work

## COc1ccc(NS(=O)(=O)c2ccc(I)cc2)cc1N1CCN(C)CC1 [SB258585]
[1]; Table S1, % of reference antagonist (SB258585 10^-5 M)
  5-HT6 Antagonist Mode Emax: 100%
[1]; ± SEM, % of maximal agonist response (Serotonin 10^−5 M)
  5-HT6R Agonist Mode Emax: 2.00 ± 0.50%

## C[C@]12N[C@H](Cc3ccccc31)c1ccccc12 [MK-801, MK-801 maleate, reference compound]
[2]
  Total Exploratory Time in T2 Session: 42.00 ± 3.13 s and 47.07 ± 3.89 s
[3]
  Discrimination Index: −0.07 ± 0.01

## CN(C)CCc1c[nH]c2ccc(NS(=O)(=O)c3c(Cl)nc4sccn34)cc12 [AG-1]
[4]
  dose with procognitive effect in the NOR test: 2.5 mg/kg
